Source: the NIST ThermoML archive (doi:10.1016/j.jct.2008.07.005)

Test: xn = mol fraction of the nth substance listed
Conditions: 98.93 kPa, Liquid

CCCO [propan-1-ol] + O
mass density [kg/m3]
Conditions | 283.15 K | 288.15 K | 293.15 K | 298.15 K | 303.15 K | 308.15 K
x1 = 0.002 | 998.53 | 997.69 | 996.58 | 995.4 | 994.2 | 992.72
x1 = 0.005 | 996.91 | 996.06 | 994.95 | 993.76 | 992.54 | 991.05
x1 = 0.009 | 994.87 | 994 | 992.87 | 991.66 | 990.43 | 988.92
x1 = 0.01 | 994.38 | 993.49 | 992.36 | 991.14 | 989.92 | 988.4
x1 = 0.02 | 989.99 | 988.99 | 987.82 | 986.54 | 985.27 | 983.68
x1 = 0.03 | 986.29 | 985.17 | 983.91 | 982.56 | 981.2 | 979.57
x1 = 0.05 | 979.96 | 978.27 | 977.1 | 975.49 | 973.96 | 972.3
x1 = 0.065 | 975.01 | 972.88 | 971.86 | 969.94 | 968.38 | 966.41
x1 = 0.08 | 969.18 | 966.99 | 965.87 | 963.72 | 961.92 | 959.82
x1 = 0.1 | 960.42 | 958.48 | 957.26 | 954.91 | 952.93 | 950.64
x1 = 0.13 | 947.97 | 946 | 944.52 | 941.96 | 939.8 | 937.47
x1 = 0.15 | 940.47 | 938.48 | 936.78 | 934.12 | 931.81 | 929.47
x1 = 0.17 | 933.5 | 931.45 | 929.49 | 926.68 | 924.32 | 922.05
x1 = 0.1856 | 928.41 | 926.35 | 924.19 | 921.23 | 918.84 | 916.61
x1 = 0.2 | 923.98 | 921.89 | 919.56 | 916.46 | 914.04 | 911.83

OCCCO [propan-1,3-diol] + O
mass density [kg/m3]
Conditions | 283.15 K | 288.15 K | 293.15 K | 298.15 K | 303.15 K | 308.15 K
x1 = 0.002 | 1000.12 | 999.49 | 998.61 | 997.63 | 996.05 | 994.51
x1 = 0.005 | 1000.99 | 1000.34 | 999.44 | 998.44 | 996.84 | 995.27
x1 = 0.01 | 1002.44 | 1001.75 | 1000.81 | 999.76 | 998.14 | 996.53
x1 = 0.019 | 1005.28 | 1004.53 | 1003.5 | 1002.37 | 1000.71 | 999
x1 = 0.03 | 1008.07 | 1007.24 | 1006.13 | 1004.91 | 1003.2 | 1001.41
x1 = 0.04 | 1010.8 | 1009.9 | 1008.71 | 1007.39 | 1005.63 | 1003.75
x1 = 0.05 | 1013.46 | 1012.49 | 1011.23 | 1009.82 | 1008 | 1006.03
x1 = 0.065 | 1017.32 | 1016.24 | 1014.85 | 1013.31 | 1011.4 | 1009.3
x1 = 0.08 | 1021.01 | 1019.75 | 1018.24 | 1016.57 | 1014.57 | 1012.35
x1 = 0.1 | 1025.57 | 1024.07 | 1022.38 | 1020.58 | 1018.45 | 1016.06
x1 = 0.125 | 1030.69 | 1028.92 | 1027.01 | 1025.02 | 1022.73 | 1020.19
x1 = 0.1526 | 1035.61 | 1033.62 | 1031.48 | 1029.18 | 1026.8 | 1024.09
x1 = 0.17 | 1038.35 | 1036.24 | 1033.94 | 1031.44 | 1029.04 | 1026.23
x1 = 0.18 | 1039.8 | 1037.62 | 1035.24 | 1032.61 | 1030.2 | 1027.36
x1 = 0.2 | 1042.35 | 1040.04 | 1037.56 | 1034.66 | 1032.25 | 1029.35

CC(O)CO (stereo not given) [1,2-propanediol] + O
mass density [kg/m3]
Conditions | 283.15 K | 288.15 K | 293.15 K | 298.15 K | 303.15 K | 308.15 K
x1 = 0.002 | 1000.28 | 999.66 | 998.73 | 997.56 | 996.13 | 994.48
x1 = 0.005 | 1001.15 | 1000.5 | 999.55 | 998.32 | 996.87 | 995.17
x1 = 0.01 | 1002.65 | 1001.93 | 1000.93 | 999.63 | 998.12 | 996.34
x1 = 0.019 | 1005.45 | 1004.9 | 1003.81 | 1002.37 | 1000.73 | 998.77
x1 = 0.03 | 1008.94 | 1007.94 | 1006.74 | 1005.17 | 1003.41 | 1001.32
x1 = 0.04 | 1012.38 | 1011.16 | 1009.69 | 1008.04 | 1006.07 | 1003.85
x1 = 0.05 | 1015.77 | 1014.38 | 1012.66 | 1010.8 | 1008.65 | 1006.42
x1 = 0.065 | 1020.67 | 1018.96 | 1016.94 | 1014.74 | 1012.36 | 1010.15
x1 = 0.08 | 1025.18 | 1023.18 | 1020.8 | 1018.36 | 1015.78 | 1013.54
x1 = 0.1 | 1030.57 | 1027.89 | 1025.18 | 1022.6 | 1019.88 | 1017.51
x1 = 0.125 | 1035.97 | 1032.58 | 1029.58 | 1027.01 | 1024.14 | 1021.52
x1 = 0.1526 | 1039.91 | 1036.53 | 1033.34 | 1030.86 | 1028.08 | 1024.73
x1 = 0.17 | 1041.79 | 1038.5 | 1035.11 | 1032.86 | 1030.11 | 1026.33
x1 = 0.18 | 1042.67 | 1039.47 | 1035.98 | 1033.9 | 1031.1 | 1027.06
x1 = 0.2 | 1043.92 | 1041 | 1037.19 | 1035.6 | 1032.73 | 1027.98

OCC(O)CO [glycerol] + O
mass density [kg/m3]
Conditions | 283.15 K | 288.15 K | 293.15 K | 298.15 K | 303.15 K | 308.15 K
x1 = 0.002 | 1002.15 | 1001.53 | 1000.6 | 999.43 | 998.01 | 996.37
x1 = 0.005 | 1005.76 | 1005.11 | 1004.14 | 1002.93 | 1001.48 | 999.81
x1 = 0.01 | 1011.64 | 1010.93 | 1009.9 | 1008.63 | 1007.12 | 1005.42
x1 = 0.019 | 1022.85 | 1022.06 | 1020.89 | 1019.51 | 1017.89 | 1016.12
x1 = 0.03 | 1033.4 | 1032.52 | 1031.22 | 1029.73 | 1028.03 | 1026.18
x1 = 0.04 | 1043.36 | 1042.38 | 1040.97 | 1039.37 | 1037.58 | 1035.66
x1 = 0.05 | 1052.76 | 1051.69 | 1050.15 | 1048.46 | 1046.58 | 1044.59
x1 = 0.065 | 1065.9 | 1064.68 | 1062.99 | 1061.17 | 1059.16 | 1057.08
x1 = 0.08 | 1078.01 | 1076.64 | 1074.81 | 1072.85 | 1070.74 | 1068.56
x1 = 0.1 | 1092.7 | 1091.17 | 1089.16 | 1087.05 | 1084.79 | 1082.51
x1 = 0.125 | 1109.07 | 1107.35 | 1105.15 | 1102.86 | 1100.45 | 1098.03
x1 = 0.1526 | 1124.96 | 1123.05 | 1120.68 | 1118.23 | 1115.66 | 1113.11
x1 = 0.17 | 1133.96 | 1131.96 | 1129.5 | 1126.96 | 1124.3 | 1121.66
x1 = 0.18 | 1138.83 | 1136.77 | 1134.27 | 1131.68 | 1128.97 | 1126.28
x1 = 0.2 | 1147.94 | 1145.78 | 1143.22 | 1140.54 | 1137.73 | 1134.94
